Molecules are shown by their SMILES.

As a reminder, the EC50 is the concentration that produces a half-maximal response.

The first test deals with T1, alpha2A receptor (Homo sapiens, UniProt P08913).
T1 construct: expressed in transfected cells; host or cells: NIH-3T3 cells
T1 sequence (P08913 1-465): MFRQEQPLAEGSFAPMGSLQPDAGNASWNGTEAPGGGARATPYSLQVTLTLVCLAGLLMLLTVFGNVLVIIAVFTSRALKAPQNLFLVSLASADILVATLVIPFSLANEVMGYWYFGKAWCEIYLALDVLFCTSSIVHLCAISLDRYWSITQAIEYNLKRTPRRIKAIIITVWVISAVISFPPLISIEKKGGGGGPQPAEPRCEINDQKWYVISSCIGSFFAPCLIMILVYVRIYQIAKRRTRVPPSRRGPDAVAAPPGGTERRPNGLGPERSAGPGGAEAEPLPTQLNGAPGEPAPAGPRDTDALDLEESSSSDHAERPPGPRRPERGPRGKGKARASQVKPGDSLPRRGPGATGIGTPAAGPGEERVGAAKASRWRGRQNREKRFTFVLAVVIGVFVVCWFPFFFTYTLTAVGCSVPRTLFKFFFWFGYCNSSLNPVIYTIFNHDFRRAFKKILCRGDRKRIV
The experiment in a line: Receptor Selection and Amplification Technology (RSAT) assay, alpha2A. Type of test: cell-based.
Details: not given
On the procedure:
(§1) Receptor Selection and Amplification Technology (RSAT) Assay
(§2) The RSAT assay measures a receptor-mediated loss of contact inhibition that results in selective proliferation of receptor-containing cells in a mixed population of confluent cells. The increase in cell number is assessed with an appropriate transfected marker gene such as β-galactosidase, the activity of which can be easily measured in a 96-well format. Receptors that activate the G protein, Gq, elicit this response. Alpha2 receptors, which normally couple to Gi, activate the RSAT response when coexpressed with a hybrid Gq protein that has a Gi receptor recognition domain, called Gq/i5.
(§3) NIH-3T3 cells are plated at a density of 2×10^6 cells in 15 cm dishes and maintained in Dulbecco's modified Eagle's medium supplemented with 10% calf serum. One day later, cells are cotransfected by calcium phosphate precipitation with mammalian expression plasmids encoding p-SV-β-galactosidase (5-10 μg), receptor (1-2 μg) and G protein (1-2 μg). 40 μg salmon sperm DNA may also be included in the transfection mixture. Fresh media is added on the following day and 1-2 days later, cells are harvested and frozen in 50 assay aliquots. Cells are thawed and […] added to 100 aliquots of various concentrations of drugs in triplicate in 96-well dishes. Incubations continue 72-96 hr at 37° C. After washing with phosphate-buffered saline, β-galactosidase enzyme activity is determined by adding 200 μl of the chromogenic substrate (consisting of 3.5 mM o-nitrophenyl-β-D-galactopyranoside and 0.5% nonidet P-40 in phosphate buffered saline), incubating overnight at 30° C. and measuring optical density at 420 nm. The absorbance is a measure of enzyme activity, which depends on cell number and reflects a receptor-mediated cell proliferation. The efficacy or intrinsic activity is calculated as a ratio of the maximal effect of the drug to the maximal effect of a standard full agonist for each receptor subtype. Brimonidine, also called UK14304, the chemical structure of which is shown below, is used as the standard agonist for the alpha2A, alpha2B and alpha2C receptors. The EC50 is the concentration at which the drug effect is half of its maximal effect.
(§4) EC50 values are nanomolar. ND stands for “not determinable” at concentrations less than 10 micromolar. IA stands for “intrinsic activity.”
`Clc1cccc(C(c2ccccn2)c2c[nH]cn2)c1Cl` (stereo not drawn) [2-((2,3-dichlorophenyl)(1H-imidazol-5-yl)methyl)pyridine] came in with an EC50 greater than 10 µM.
In the case of `Fc1ccccc1C(c1cccnc1)c1c[nH]cn1` (stereo not drawn) [3-((2-fluorophenyl)(1H-imidazol-5-yl)methyl)pyridine], the EC50 was greater than 10 µM.

The test is the same for the next values; noted with them: RSAT, transfected NIH-3T3 cells; value outside brackets; read-out: Alpha 2A EC50 (potency).
`Fc1cccc(C(c2cccnc2)c2c[nH]cn2)c1Cl` (stereo not drawn): the EC50 was determined as 3.37 µM.
Same read-out and setting: next, `Cc1ccccc1C(c1ccncc1)c1c[nH]cn1` (stereo not drawn) [4-((2-methylphenyl)(1H-imidazol-5-yl)methyl)pyridine]: greater than 10 µM; `Fc1c(C(c2ccccn2)c2c[nH]cn2)cccc1C(F)(F)F` (stereo not drawn) [2-((2-fluoro-3-(trifluoromethyl)phenyl)(1H-imidazol-5-yl)methyl)pyridine]: greater than 10 µM.
On the same count and under the same terms, for `Clc1cccc(C(c2ccncc2)c2c[nH]cn2)c1Cl` (stereo not drawn) [4-((2,3-dichlorophenyl)(1H-imidazol-5-yl)methyl)pyridine] the value was greater than 10 µM; for `Fc1ccccc1C(c1ccccn1)c1c[nH]cn1` (stereo not drawn) [2-((2-fluorophenyl)(1H-imidazol-5-yl)methyl)pyridine], greater than 10 µM.

Staying with this test, now noted: RSAT; ratio of maximal effect to that of standard full agonist brimonidine (UK14304); value in brackets.
For the compound `Fc1cccc(C(c2cccnc2)c2c[nH]cn2)c1Cl` (stereo not drawn), the “Alpha 2A intrinsic activity (efficacy)” value is 0.32.
Consider `Cc1ccccc1C(c1ccncc1)c1c[nH]cn1` (stereo not drawn) [4-((2-methylphenyl)(1H-imidazol-5-yl)methyl)pyridine], for which the “Alpha 2A intrinsic activity (efficacy)” value is 0.06.
On to `Fc1c(C(c2ccccn2)c2c[nH]cn2)cccc1C(F)(F)F` (stereo not drawn) [2-((2-fluoro-3-(trifluoromethyl)phenyl)(1H-imidazol-5-yl)methyl)pyridine], for which the “Alpha 2A intrinsic activity (efficacy)” value was found to be 0.08.
In the case of `Clc1cccc(C(c2ccncc2)c2c[nH]cn2)c1Cl` (stereo not drawn) [4-((2,3-dichlorophenyl)(1H-imidazol-5-yl)methyl)pyridine], the “Alpha 2A intrinsic activity (efficacy)” value turned out to be 0.18.
The same measure, in the same setting: next, `Fc1ccccc1C(c1ccccn1)c1c[nH]cn1` (stereo not drawn) [2-((2-fluorophenyl)(1H-imidazol-5-yl)methyl)pyridine]: 0.04; `Clc1cccc(C(c2ccccn2)c2c[nH]cn2)c1Cl` (stereo not drawn) [2-((2,3-dichlorophenyl)(1H-imidazol-5-yl)methyl)pyridine]: 0.21; `Fc1ccccc1C(c1cccnc1)c1c[nH]cn1` (stereo not drawn) [3-((2-fluorophenyl)(1H-imidazol-5-yl)methyl)pyridine]: 0.7.

Another test has as its target T2, alpha2B receptor (Homo sapiens, UniProt P18089).
T2 construct: expressed in transfected cells; host or cells: NIH-3T3 cells
T2 sequence (P18089 1-450): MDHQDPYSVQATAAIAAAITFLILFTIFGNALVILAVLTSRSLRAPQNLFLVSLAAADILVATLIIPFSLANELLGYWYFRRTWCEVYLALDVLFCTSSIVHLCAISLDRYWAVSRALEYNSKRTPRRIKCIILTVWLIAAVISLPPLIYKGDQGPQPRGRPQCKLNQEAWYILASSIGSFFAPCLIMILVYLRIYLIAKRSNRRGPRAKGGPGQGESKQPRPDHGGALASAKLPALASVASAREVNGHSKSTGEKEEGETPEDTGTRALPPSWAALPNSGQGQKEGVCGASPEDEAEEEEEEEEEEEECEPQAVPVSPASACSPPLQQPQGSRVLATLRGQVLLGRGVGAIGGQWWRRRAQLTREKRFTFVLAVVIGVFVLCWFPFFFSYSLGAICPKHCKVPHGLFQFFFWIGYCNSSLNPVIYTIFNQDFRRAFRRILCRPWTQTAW
The experiment in a line: Receptor Selection and Amplification Technology (RSAT) assay, alpha2B. Format: cell-based.
Details: not given
On the procedure:
as §1, §2, §3, §4
The compound `Clc1cccc(C(c2ccccn2)c2c[nH]cn2)c1Cl` (stereo not drawn) [2-((2,3-dichlorophenyl)(1H-imidazol-5-yl)methyl)pyridine] showed an EC50 of 0.0087 µM.
Still for that read-out and setting: next, `Fc1ccccc1C(c1cccnc1)c1c[nH]cn1` (stereo not drawn) [3-((2-fluorophenyl)(1H-imidazol-5-yl)methyl)pyridine]: 0.251 µM.

Still in this test, the particulars now being: RSAT, transfected NIH-3T3 cells; value outside brackets; read-out: Alpha 2B EC50 (potency).
In the case of `Fc1cccc(C(c2cccnc2)c2c[nH]cn2)c1Cl` (stereo not drawn), the EC50 was 0.0048 µM.
The same measure, in the same setting: next, `Cc1ccccc1C(c1ccncc1)c1c[nH]cn1` (stereo not drawn) [4-((2-methylphenyl)(1H-imidazol-5-yl)methyl)pyridine]: 0.063 µM; `Fc1c(C(c2ccccn2)c2c[nH]cn2)cccc1C(F)(F)F` (stereo not drawn) [2-((2-fluoro-3-(trifluoromethyl)phenyl)(1H-imidazol-5-yl)methyl)pyridine]: 0.039 µM.
Still for that read-out and setting: next, `Clc1cccc(C(c2ccncc2)c2c[nH]cn2)c1Cl` (stereo not drawn) [4-((2,3-dichlorophenyl)(1H-imidazol-5-yl)methyl)pyridine]: 0.0032 µM.
The same measure, in the same setting: next, `Fc1ccccc1C(c1ccccn1)c1c[nH]cn1` (stereo not drawn) [2-((2-fluorophenyl)(1H-imidazol-5-yl)methyl)pyridine]: 0.993 µM.

Staying with this test, now noted: RSAT; ratio of maximal effect to that of standard full agonist brimonidine (UK14304); value in brackets.
With `Fc1cccc(C(c2cccnc2)c2c[nH]cn2)c1Cl` (stereo not drawn), the “Alpha 2B intrinsic activity (efficacy)” value was found to be 0.98.
Take `Cc1ccccc1C(c1ccncc1)c1c[nH]cn1` (stereo not drawn) [4-((2-methylphenyl)(1H-imidazol-5-yl)methyl)pyridine]: the “Alpha 2B intrinsic activity (efficacy)” value is 0.82.
Same read-out and setting: next, `Fc1c(C(c2ccccn2)c2c[nH]cn2)cccc1C(F)(F)F` (stereo not drawn) [2-((2-fluoro-3-(trifluoromethyl)phenyl)(1H-imidazol-5-yl)methyl)pyridine]: 1.1.
For the compound `Clc1cccc(C(c2ccncc2)c2c[nH]cn2)c1Cl` (stereo not drawn) [4-((2,3-dichlorophenyl)(1H-imidazol-5-yl)methyl)pyridine], the “Alpha 2B intrinsic activity (efficacy)” value worked out at 1.31.
Consider `Fc1ccccc1C(c1ccccn1)c1c[nH]cn1` (stereo not drawn) [2-((2-fluorophenyl)(1H-imidazol-5-yl)methyl)pyridine], for which the “Alpha 2B intrinsic activity (efficacy)” value is 0.56.
Same read-out and setting: for `Clc1cccc(C(c2ccccn2)c2c[nH]cn2)c1Cl` (stereo not drawn) [2-((2,3-dichlorophenyl)(1H-imidazol-5-yl)methyl)pyridine] the value was “.85”; for `Fc1ccccc1C(c1cccnc1)c1c[nH]cn1` (stereo not drawn) [3-((2-fluorophenyl)(1H-imidazol-5-yl)methyl)pyridine], 0.60.

A further test concerns the target T3, alpha2C receptor (Homo sapiens, UniProt P18825).
T3 construct: expressed in transfected cells; host or cells: NIH-3T3 cells
T3 sequence (P18825 1-462): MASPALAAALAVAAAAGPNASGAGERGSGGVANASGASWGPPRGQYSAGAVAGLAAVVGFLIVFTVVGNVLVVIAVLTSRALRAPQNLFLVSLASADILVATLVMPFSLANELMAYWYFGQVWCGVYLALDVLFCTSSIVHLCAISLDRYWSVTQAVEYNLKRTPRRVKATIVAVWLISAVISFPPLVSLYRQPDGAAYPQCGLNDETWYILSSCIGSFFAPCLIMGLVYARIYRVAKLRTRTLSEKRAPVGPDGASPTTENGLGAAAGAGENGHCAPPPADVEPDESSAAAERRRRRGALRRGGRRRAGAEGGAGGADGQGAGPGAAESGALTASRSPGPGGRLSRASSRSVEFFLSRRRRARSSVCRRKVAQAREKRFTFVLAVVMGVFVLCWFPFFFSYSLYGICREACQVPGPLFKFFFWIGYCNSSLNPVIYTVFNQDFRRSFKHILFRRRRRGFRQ
The experiment in a line: Receptor Selection and Amplification Technology (RSAT) assay, alpha2C. Format: cell-based.
Details: not given
Here is the method: as §1, §2, §3, §4
The compound `Clc1cccc(C(c2ccccn2)c2c[nH]cn2)c1Cl` (stereo not drawn) [2-((2,3-dichlorophenyl)(1H-imidazol-5-yl)methyl)pyridine] registered an EC50 of 0.784 µM.
The compound `Fc1ccccc1C(c1cccnc1)c1c[nH]cn1` (stereo not drawn) [3-((2-fluorophenyl)(1H-imidazol-5-yl)methyl)pyridine] came in with an EC50 of 2.48 µM.

The test is the same for the next values; noted with them: RSAT, transfected NIH-3T3 cells; value outside brackets; read-out: Alpha 2C EC50 (potency).
Take `Fc1cccc(C(c2cccnc2)c2c[nH]cn2)c1Cl` (stereo not drawn): the EC50 stood at 0.088 µM.
On the same count and under the same terms, for `Cc1ccccc1C(c1ccncc1)c1c[nH]cn1` (stereo not drawn) [4-((2-methylphenyl)(1H-imidazol-5-yl)methyl)pyridine] the value was 0.265 µM.
As to `Fc1c(C(c2ccccn2)c2c[nH]cn2)cccc1C(F)(F)F` (stereo not drawn) [2-((2-fluoro-3-(trifluoromethyl)phenyl)(1H-imidazol-5-yl)methyl)pyridine], the EC50 came out at 0.507 µM.
For `Clc1cccc(C(c2ccncc2)c2c[nH]cn2)c1Cl` (stereo not drawn) [4-((2,3-dichlorophenyl)(1H-imidazol-5-yl)methyl)pyridine], the EC50 amounted to 0.097 µM.
On the same count and under the same terms, for `Fc1ccccc1C(c1ccccn1)c1c[nH]cn1` (stereo not drawn) [2-((2-fluorophenyl)(1H-imidazol-5-yl)methyl)pyridine] the value was 2.08 µM.

The test is the same for the next values; noted with them: RSAT; ratio of maximal effect to that of standard full agonist brimonidine (UK14304); value in brackets.
Turning to `Fc1cccc(C(c2cccnc2)c2c[nH]cn2)c1Cl` (stereo not drawn), the “Alpha 2C intrinsic activity (efficacy)” value is listed as 0.87.
The same measure, in the same setting: next, `Cc1ccccc1C(c1ccncc1)c1c[nH]cn1` (stereo not drawn) [4-((2-methylphenyl)(1H-imidazol-5-yl)methyl)pyridine]: 1.08.
For `Fc1c(C(c2ccccn2)c2c[nH]cn2)cccc1C(F)(F)F` (stereo not drawn) [2-((2-fluoro-3-(trifluoromethyl)phenyl)(1H-imidazol-5-yl)methyl)pyridine], the “Alpha 2C intrinsic activity (efficacy)” value stood at 1.09.
Turning to `Clc1cccc(C(c2ccncc2)c2c[nH]cn2)c1Cl` (stereo not drawn) [4-((2,3-dichlorophenyl)(1H-imidazol-5-yl)methyl)pyridine], the “Alpha 2C intrinsic activity (efficacy)” value is given as 0.72.
The same measure, in the same setting: next, `Fc1ccccc1C(c1ccccn1)c1c[nH]cn1` (stereo not drawn) [2-((2-fluorophenyl)(1H-imidazol-5-yl)methyl)pyridine]: 0.43.
Still for that read-out and setting: for `Clc1cccc(C(c2ccccn2)c2c[nH]cn2)c1Cl` (stereo not drawn) [2-((2,3-dichlorophenyl)(1H-imidazol-5-yl)methyl)pyridine] the value was 0.39; for `Fc1ccccc1C(c1cccnc1)c1c[nH]cn1` (stereo not drawn) [3-((2-fluorophenyl)(1H-imidazol-5-yl)methyl)pyridine], 0.55.
